The target in experiment [1] is PI3Kα (Homo sapiens (Human), UniProt P42336). Put plainly: PI3Kα enzyme activity inhibition IC50 evaluation assay. Format: biochemical. To be noted: ratio PI3Kα vs PI3Kδ. The method, boiled down:
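Enzymes were preincubated with compound (1% DMSO final) in HEPES pH 7.5 buffer with MgCl2, EGTA, NaCl, CHAPS and 2 mM DTT. Reaction started with 50 μM PIP2 and 25 μM ATP, 1 h at room temperature. Luminescence was read, with ADP-Glo detection reagent added for β and γ; inhibition is the mean of two tests.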

Experiment [2] concerns the target PI3Kγ (Homo sapiens (Human), UniProt P48736). Put plainly: PI3Kγ enzyme activity inhibition IC50 evaluation assay. Type of experiment: biochemical. To be noted: ratio PI3Kγ vs PI3Kδ. As to the method:
(§1) PI3Kα, PI3Kδ, PI3Kβ and PI3Kγ Enzyme Activity Inhibition IC50 Evaluation Assay
(§2) • 1. Buffer preparation: 50 mM HEPES, pH 7.5, 3 mM MgCl2, 1 mM EGTA, 100 mM NaCl, 0.03% CHAPS. • 2. Compound was formulated in 100% DMSO in a concentration gradient, and added to a 384-well plate to a final DMSO concentration of 1%. • 3. PI3Kα, PI3Kδ, PI3Kβ and PI3Kγ enzymes were diluted to an optimum concentration with the following buffer: 50 mM HEPES, pH 7.5, 3 mM MgCl2, 1 mM EGTA, 100 mM NaCl, 0.03% CHAPS, 2 mM DTT, and transferred to a 384-well plate and incubated with the compound for a certain time. • 4. Substrate was diluted to an optimum concentration with the following buffer: 50 mM HEPES, pH 7.5, 3 mM MgCl2, 1 mM EGTA, 100 mM NaCl, 0.03% CHAPS, 2 mM DTT, 50 μM PIP2, 25 μM ATP; then added to a 384-well plate to initiate the reaction, and for PI3Kα, PI3Kβ and PI3Kγ at room temperature reacted for 1 hr, for PI3Kδ at room temperature reacted for 2 hrs. For PI3Kβ and PI3Kγ, it was still necessary to further add 10 μL ADP-Glo Detection Reagent, and then equilibrated at room temperature for 30 minutes. • 5. Read Luminescense with FlexStation, and calculate the inhibition rate as the average of two tests.

In experiment [3] the target is PI3Kδ (Homo sapiens (Human), UniProt O00329). The experiment can be described thus: PI3Kδ enzyme activity inhibition IC50 evaluation assay. Format: biochemical. To be noted: luminescence, 25 μM ATP, 50 μM PIP2, 2 hrs room temperature. The method, boiled down: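 Enzyme was preincubated with compound dilutions at 1% DMSO final in 50 mM HEPES pH 7.5, 3 mM MgCl2, 1 mM EGTA, 100 mM NaCl, 0.03% CHAPS, 2 mM DTT. Activity was read by luminescence, and inhibition rate is the mean of two tests.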

The target in experiment [4] is PI3Kβ (Homo sapiens (Human), UniProt P42338). Put plainly: PI3Kβ enzyme activity inhibition IC50 evaluation assay. Format: biochemical. To be noted: ratio PI3Kβ vs PI3Kδ. As to the method:
as §1, §2

Experiment [5] has as its system Raji cells. The experiment can be described thus: Inhibition of TNF-α generation of human Raji cell induced by human IgM. Format: cell-based. The note with it: 10 μg/ml IgM stimulation, 24 hrs, ELISA. The procedure:
Screening Test for a Drug on Inhibiting TNF-α Generation of Human Raji Cell Induced by Human IgM
• 1. Raji cell lines (source of human Burkitt's lymphoma) were employed. • 2. 1×10^5/well Raji cells were plated onto a 96-well cell culture plate. • 3. Compounds to be screened were diluted to the corresponding test concentrations and added into the cell culture system 30 minutes before IgM stimulation. • 4. 10 μg/ml IgM monoclonal antibody was added into the cell culture system to stimulate the cells generating TNF-α. • 5. 24 hrs later, the amount of TNF-α generated by the cell system was measured by ELISA method. • 6.

PI3Kγ, sequence (P48736 whole entry): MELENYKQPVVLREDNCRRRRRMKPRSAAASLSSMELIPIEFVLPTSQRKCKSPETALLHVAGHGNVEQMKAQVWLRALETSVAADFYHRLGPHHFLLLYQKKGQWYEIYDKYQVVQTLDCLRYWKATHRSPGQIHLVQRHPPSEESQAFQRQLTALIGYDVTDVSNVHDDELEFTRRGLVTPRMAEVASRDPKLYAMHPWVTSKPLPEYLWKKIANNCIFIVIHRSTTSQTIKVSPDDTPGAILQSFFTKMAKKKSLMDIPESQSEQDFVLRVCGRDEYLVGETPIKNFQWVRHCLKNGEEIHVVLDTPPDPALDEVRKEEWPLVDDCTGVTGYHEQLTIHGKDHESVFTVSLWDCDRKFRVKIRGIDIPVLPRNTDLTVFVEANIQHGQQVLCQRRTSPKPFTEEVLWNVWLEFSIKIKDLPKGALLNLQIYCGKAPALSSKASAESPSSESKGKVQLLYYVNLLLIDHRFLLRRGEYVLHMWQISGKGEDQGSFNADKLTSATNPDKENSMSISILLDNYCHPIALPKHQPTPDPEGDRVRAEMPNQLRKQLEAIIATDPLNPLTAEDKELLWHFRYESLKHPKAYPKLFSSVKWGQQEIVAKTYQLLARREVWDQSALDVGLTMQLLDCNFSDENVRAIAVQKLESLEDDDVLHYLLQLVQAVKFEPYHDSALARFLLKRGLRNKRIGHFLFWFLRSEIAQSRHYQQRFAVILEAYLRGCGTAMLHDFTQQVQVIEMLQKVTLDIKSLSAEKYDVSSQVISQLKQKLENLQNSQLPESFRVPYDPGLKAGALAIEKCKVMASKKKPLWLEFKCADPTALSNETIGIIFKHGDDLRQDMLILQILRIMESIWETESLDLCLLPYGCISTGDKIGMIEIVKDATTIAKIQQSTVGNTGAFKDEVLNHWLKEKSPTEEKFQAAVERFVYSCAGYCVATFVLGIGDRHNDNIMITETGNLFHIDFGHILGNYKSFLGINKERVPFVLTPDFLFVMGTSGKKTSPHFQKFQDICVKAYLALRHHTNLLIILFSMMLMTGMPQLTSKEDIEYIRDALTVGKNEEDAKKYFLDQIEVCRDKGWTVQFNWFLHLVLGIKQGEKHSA
PI3Kα, sequence (P42336 whole entry): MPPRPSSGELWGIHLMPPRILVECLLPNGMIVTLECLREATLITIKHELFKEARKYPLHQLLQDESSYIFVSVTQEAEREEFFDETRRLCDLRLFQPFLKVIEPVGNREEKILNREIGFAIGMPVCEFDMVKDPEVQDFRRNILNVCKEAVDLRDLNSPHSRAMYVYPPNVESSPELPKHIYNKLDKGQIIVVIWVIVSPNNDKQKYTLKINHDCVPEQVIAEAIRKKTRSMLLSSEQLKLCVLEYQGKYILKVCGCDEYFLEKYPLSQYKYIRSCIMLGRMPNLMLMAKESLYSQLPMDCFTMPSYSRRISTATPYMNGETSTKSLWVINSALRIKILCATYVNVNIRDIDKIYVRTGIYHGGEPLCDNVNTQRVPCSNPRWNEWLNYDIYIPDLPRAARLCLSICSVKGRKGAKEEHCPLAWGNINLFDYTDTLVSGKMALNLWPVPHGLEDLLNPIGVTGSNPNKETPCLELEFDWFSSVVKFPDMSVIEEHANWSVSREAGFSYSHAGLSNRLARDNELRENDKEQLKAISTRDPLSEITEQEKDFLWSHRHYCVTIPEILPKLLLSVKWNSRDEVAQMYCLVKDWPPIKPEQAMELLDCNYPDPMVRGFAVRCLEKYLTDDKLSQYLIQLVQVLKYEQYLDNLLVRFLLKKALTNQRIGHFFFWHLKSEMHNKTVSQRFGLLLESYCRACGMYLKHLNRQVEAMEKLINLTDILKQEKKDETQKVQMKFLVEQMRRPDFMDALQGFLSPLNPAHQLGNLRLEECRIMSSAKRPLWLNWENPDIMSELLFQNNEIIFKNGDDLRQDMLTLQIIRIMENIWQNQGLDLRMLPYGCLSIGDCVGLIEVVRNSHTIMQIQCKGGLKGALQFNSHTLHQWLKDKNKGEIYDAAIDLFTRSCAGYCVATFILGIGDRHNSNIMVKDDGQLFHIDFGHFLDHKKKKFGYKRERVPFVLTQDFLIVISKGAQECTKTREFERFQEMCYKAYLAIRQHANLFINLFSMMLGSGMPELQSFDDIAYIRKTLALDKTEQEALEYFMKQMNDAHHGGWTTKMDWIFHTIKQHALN
PI3Kα, sequence (P27986 whole entry partner): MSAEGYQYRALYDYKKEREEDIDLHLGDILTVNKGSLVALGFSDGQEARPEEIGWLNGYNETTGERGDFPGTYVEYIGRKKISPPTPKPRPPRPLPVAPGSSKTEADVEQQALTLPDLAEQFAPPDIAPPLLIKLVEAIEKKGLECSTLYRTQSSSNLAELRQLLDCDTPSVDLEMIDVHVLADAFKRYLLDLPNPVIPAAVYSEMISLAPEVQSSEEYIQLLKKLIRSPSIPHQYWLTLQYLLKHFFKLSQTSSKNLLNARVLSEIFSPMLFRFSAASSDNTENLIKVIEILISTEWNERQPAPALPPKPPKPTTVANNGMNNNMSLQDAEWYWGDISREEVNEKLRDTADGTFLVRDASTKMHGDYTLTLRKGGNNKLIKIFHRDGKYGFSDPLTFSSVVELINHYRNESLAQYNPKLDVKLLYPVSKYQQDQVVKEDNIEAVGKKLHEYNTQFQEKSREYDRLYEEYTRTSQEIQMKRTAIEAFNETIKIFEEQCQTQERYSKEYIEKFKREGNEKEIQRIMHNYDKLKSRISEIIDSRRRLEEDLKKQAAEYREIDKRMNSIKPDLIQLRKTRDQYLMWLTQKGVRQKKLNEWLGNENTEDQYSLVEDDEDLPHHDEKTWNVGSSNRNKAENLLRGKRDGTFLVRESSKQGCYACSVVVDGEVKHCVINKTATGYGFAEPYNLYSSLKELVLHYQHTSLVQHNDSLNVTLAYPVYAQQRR
PI3Kδ, sequence (O00329 whole entry): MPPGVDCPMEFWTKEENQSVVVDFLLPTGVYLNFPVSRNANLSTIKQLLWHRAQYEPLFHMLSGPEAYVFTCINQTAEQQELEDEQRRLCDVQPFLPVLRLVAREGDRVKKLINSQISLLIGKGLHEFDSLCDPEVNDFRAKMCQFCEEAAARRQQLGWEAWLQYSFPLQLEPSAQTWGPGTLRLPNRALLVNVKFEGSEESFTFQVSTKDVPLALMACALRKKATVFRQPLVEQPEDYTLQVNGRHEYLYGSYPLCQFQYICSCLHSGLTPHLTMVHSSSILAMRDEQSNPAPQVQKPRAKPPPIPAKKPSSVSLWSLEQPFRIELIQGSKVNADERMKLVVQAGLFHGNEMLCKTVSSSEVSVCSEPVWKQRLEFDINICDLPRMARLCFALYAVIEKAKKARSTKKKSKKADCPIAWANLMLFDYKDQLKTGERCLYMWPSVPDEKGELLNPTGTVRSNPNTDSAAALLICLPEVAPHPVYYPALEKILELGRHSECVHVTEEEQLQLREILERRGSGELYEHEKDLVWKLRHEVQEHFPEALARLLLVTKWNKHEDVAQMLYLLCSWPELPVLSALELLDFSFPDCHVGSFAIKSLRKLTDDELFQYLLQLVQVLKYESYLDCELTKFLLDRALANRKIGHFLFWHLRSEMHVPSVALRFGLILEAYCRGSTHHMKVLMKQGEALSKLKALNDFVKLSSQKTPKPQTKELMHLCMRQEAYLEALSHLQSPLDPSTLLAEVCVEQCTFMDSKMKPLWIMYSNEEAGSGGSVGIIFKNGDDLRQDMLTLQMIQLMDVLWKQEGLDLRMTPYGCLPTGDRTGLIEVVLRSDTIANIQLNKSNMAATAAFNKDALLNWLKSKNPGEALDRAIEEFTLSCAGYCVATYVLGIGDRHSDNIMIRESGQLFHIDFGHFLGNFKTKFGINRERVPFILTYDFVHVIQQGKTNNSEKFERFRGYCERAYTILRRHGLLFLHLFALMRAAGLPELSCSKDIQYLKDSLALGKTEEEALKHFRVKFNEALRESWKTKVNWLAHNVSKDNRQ
PI3Kδ, sequence (P27986 whole entry partner): as the sequence (P27986 whole entry partner) above
PI3Kβ, sequence (P42338 whole entry): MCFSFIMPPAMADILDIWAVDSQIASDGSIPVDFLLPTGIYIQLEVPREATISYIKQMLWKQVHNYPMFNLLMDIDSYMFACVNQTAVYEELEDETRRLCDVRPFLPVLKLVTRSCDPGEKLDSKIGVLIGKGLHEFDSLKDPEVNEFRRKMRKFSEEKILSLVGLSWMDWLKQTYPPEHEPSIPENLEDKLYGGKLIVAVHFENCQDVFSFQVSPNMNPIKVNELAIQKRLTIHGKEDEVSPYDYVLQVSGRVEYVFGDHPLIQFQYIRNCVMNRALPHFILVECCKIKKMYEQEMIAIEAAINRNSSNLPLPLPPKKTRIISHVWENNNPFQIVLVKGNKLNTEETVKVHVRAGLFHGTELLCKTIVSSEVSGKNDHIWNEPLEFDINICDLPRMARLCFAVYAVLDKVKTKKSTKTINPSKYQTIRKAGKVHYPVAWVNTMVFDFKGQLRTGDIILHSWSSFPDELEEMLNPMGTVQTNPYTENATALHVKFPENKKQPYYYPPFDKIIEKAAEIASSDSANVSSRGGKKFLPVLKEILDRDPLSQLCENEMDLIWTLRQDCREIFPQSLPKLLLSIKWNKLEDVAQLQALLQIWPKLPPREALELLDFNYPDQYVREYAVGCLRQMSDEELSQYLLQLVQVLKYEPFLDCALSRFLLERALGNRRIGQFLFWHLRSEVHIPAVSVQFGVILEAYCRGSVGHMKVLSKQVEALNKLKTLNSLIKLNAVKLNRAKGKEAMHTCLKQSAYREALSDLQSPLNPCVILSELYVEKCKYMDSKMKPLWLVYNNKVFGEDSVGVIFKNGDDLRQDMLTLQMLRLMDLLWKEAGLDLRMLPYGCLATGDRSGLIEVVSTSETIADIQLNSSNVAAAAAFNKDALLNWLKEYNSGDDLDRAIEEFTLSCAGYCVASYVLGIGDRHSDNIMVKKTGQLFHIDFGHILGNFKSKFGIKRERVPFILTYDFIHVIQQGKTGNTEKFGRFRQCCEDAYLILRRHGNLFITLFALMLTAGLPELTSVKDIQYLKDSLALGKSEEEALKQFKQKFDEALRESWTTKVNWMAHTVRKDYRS
PI3Kβ, sequence (P27986 whole entry partner): as the sequence (P27986 whole entry partner) above

In general, IC50 refers to the midpoint of a concentration-inhibition curve. Turning to `COc1ncc(-c2nc(N3CCOCC3)nc3c(CN4CCC(C(C)C)CC4)c(C)sc23)cc1NS(C)(=O)=O` [Compound 88], the α/δ selectivity in experiment [1] worked out at 548. Besides, in experiment [2], the γ/δ selectivity is reported as 1202. Further, the values for the IC50 in experiment [3] and in experiment [5] were 5.8 nM and 6.1 nM, respectively. Further, the β/δ selectivity in experiment [4] came to 73.
In the same order, the values of `COc1ncc(-c2nc(N3CCOCC3)nc3c(CN4CCC(N5CCCCC5=O)CC4)c(C)sc23)cc1NS(C)(=O)=O` [Compound 150] are 39, 221, 9.3 nM, 8.6 nM and 15.
For `COc1ncc(-c2nc(N3CCOCC3)nc3c(CN4CCC(C(C)(C)F)CC4)c(C)sc23)cc1NS(C)(=O)=O` [Compound 85] the same measures were 401, over 1162, 8.6 nM, 39.1 nM and 69.

For the origin of these results see patent publication US9745321B2, “Fused pyrimidine compound, intermediate, preparation method therefor, and composition and application thereof” (SHANGHAI YINGLI PHARMACEUTICAL CO., LTD, priority 2013, dated 2017).
